Test results published in PMC11459959, “Discovery of new acetamide derivatives of 5-indole-1,3,4-oxadiazol-2-thiol as inhibitors of HIV-1 Tat-mediated viral transcription” (Antimicrobial Agents and Chemotherapy, 2024).
Like-named read-outs stand apart in the source and are kept apart here.

Experiments:
[1] = tested on: Tat-mediated LTR transcription; assay: Dual-reporter assay, F-Luc (Tat-mediated LTR transcription) in bl-DTR cells; assay type: cell-based, HIV-1; conditions: Human immunodeficiency virus 1, 24 h, read-out: IC50 of F-Luc (Tat)
Experimental: Fig 1 (A) (Top panel) Schematic representation of the primary compound screening using a dual-reporter system. […] (B). […] (Top graphs) bl-DTR cells (1 × 10^4) were treated with twofold serial dilutions of each compound before doxycycline (Dox) addition (final concentration, 50 ng/mL). After 24 h of treatment, the activities of firefly luciferase (F-Luc, red line) and Renilla luciferase (R-Luc, blue line) were determined using the Dual-Glo Luciferase assay system. (Bottom graphs) TZM-bl cells were treated with each indicated compound and subsequently infected with the HIV-1NL4-3 strain at a multiplicity of infection (MOI) of 1. At 48 h after infection, the viral infectivity (purple line) and cell viability (green line) were determined using the Bright-Glo luciferase assay kit and the PrestoBlue Cell Viability Reagent, respectively. […] (C). […] The targeted moieties for the SAR study are marked with dotted-circle lines.
(§1) The Tzm-bl-derived dual Tat reporter; TZM-bl/Tat/Rluc (bl-DTR) cells were established from TZM-bl cells using two Dox-inducible lentiviral expression cassettes cloned with Flag-tagged Tat86 and the R-Luc gene, as described in our previous study ([11]). TZM-bl, A3.01, J1.1, and J-Lat 6.3 cells as well as the HIV-1 molecular clone pNL4-3, pNL(AD8), ARV-resistant HIV-1 strains, and HIV-1NL43-IRES-eGFP (pBR43IeG-nef^+, gifted by Dr. Frank Kirchhoff) ([52]) were provided by the National Institute of Health HIV Reagent Program (NIH, Bethesda, MD, USA). HeLa (CCL-2) and 293T (CRL-3216) cell lines were purchased from the American Type Culture Collection (ATCC, Manassas, VA, USA). The bl-DTR, TZM-bl, HeLa, and 293T cells were cultured in Dulbecco’s modified Eagle’s medium supplemented with 1% penicillin–streptomycin and 10% (vol/vol) heat-inactivated fetal bovine serum (all from Gibco-BRL, Gaithersburg, MD, USA), and 1 µg/mL of puromycin and 200 µg/mL of zeocin were additionally supplemented for the bl-DTR cells. PBMCs were purchased from AllCells (Alameda, CA, USA) and cultured as previously described ([12]). The information on ARV-resistant HIV-1 strains was described in previous reports as follows: NNRTI-resistant 12241 and 12243 ([53]); NRTI-resistant 7396, 7406, and 7407 ([54]); INSTI-resistant 11847 and 11849 ([55], [56]); and PI-resistant 11800 and 11803 ([57]). Each molecular HIV-1 clone was transfected to 293T cells, as previously described ([58]), to obtain infectious HIV-1 particles. Virus-containing cell culture supernatants were collected 3 days after transfection, and filtered through a 0.45-µm membrane filter (Millipore Sigma, Burlington, MA, USA) to remove cell debris. The viral titration was performed as described previously ([59]) with some minor modifications. In brief, 1 × 10^4 TZM-bl cells seeded in 96-well plates were infected with 200 µL of virus-containing medium diluted serially twofold. The incubation was for 2 days and the experiment was performed in triplicate; the infection time minimized the virus spread ([59]). The titration of the infectious viral particles was performed with a ß-Gal staining assay using the ßeta-Galactosidase Staining Kit (Mirus Bio, Madison, WI, USA) following the manufacturer’s protocols. In brief, the infected cells were washed with phosphate-buffered saline (PBS) and fixed using a Cell Fixative Working solution. The cells were washed with PBS and stained using the Cell Staining Working Solution containing X-gal. The infected blue-colored cells were counted under a microscope (100× magnification). The infectious virus titer was determined as a mean value of blue-colored cells count × dilution factor and used for determining the multiplicity of infection (MOI) in each infection experiment.

[2] = tested on: HIV-1NL4-3 IRES-eGFP-nef+; assay: eGFP-encoding HIV-1 infection of TZM-bl cells; assay type: cell-based; conditions: 9, 10, 13 1.5 μM, 20, 21, 22 4 μM, seliciclib 10 µM, triptolide 5 nM, DTG 2 nM, EFV 2 nM, 2 days
[3] = tested on: NNRTI-resistant HIV-1 strain 12241; assay: microbe, parasite or virus in culture; assay type: cell-based; conditions: Human immunodeficiency virus 1, TZM-bl
Experimental: (§2) Fig 7 (A–C) TZM-bl cells (1 × 10^4 cells/well) cultured in a 96-well plate were treated with fivefold serial dilutions of the indicated compound or ARV for 1 h before infection with the HIV-1NL4-3 or ARV-resistant HIV-1 strains at an MOI of 1, respectively. At 48 h after infection, the EC50 values were determined using an F-Luc activity. The symbols represent the fold-change values of EC50 against each mutant virus relative to the wild-type (WT) virus. (D) PBMCs (5 × 10^4 cells/well) were infected with the HIV-1NL4-3 and PIs-resistant HIV-1 strain at an MOI of 0.1, respectively. Subsequently, the PBMCs were treated with 10-fold serial dilutions of the indicated compounds or PI. At 3 days after infection, the EC50 values on the viral replication were determined using a p24 […] assay kit. (E) The inhibitory kinetics for the WT and ARV-resistant viruses. TZM-bl cells infected with WT or ARV-resistant viruses were cultured upon fivefold serial dilutions of each compound for 2 days and the infectivity was determined using an F-Luc activity.
as §1

[4] = tested on: NNRTI-resistant HIV-1 strain 12243; assay: microbe, parasite or virus in culture; assay type: cell-based; conditions: Human immunodeficiency virus 1, TZM-bl
Experimental: as §2, §1

[5] = tested on: INSTI-resistant HIV-1 strain 11849; assay: microbe, parasite or virus in culture; assay type: cell-based; conditions: Human immunodeficiency virus 1, TZM-bl
Experimental: as §2, §1

[6] = tested on: INSTI-resistant HIV-1 strain 11847; assay: microbe, parasite or virus in culture; assay type: cell-based; conditions: Human immunodeficiency virus 1, TZM-bl
Experimental: as §2, §1

[7] = tested on: HIV-1NL4-3; assay: HIV-1 infectivity in TZM-bl cells (F-Luc); assay type: cell-based
Experimental: The TZM-bl cells (also referred to as JC53BL-13) expressing human CD4, CXCR4, and CCR5 carrying the F-Luc and lacZ genes downstream of the HIV-1 LTR promoter ([60]) were used to determine the inhibitory effect of the compounds on HIV-1 infection, as previously described ([11], [12], [61]). In brief, 1 × 10^4 cells were cultured in 96-well plates for 24 h and subsequently treated with compounds at the indicated concentrations. Without replacement of the culture medium, the cells were subsequently infected with the HIV-1NL4-3 wild-type or ARV-resistant HIV-1 strains at an MOI of 1 to determine the exact inhibitory effect of compounds on a single-round infection. After 48 h, the inhibitory effect of the compounds was determined using a Bright Glo luciferase assay kit (Promega) or β-Galactosidase Enzyme Assay kit (Promega). The infectivity data were presented as a percentage relative to the dimethyl sulfoxide (DMSO) control (vehicle). Cell viability was determined using the resazurin-based PrestoBlue Cell Viability Reagent (Thermo Fisher Scientific, Waltham, MA, USA) following the manufacturer’s instructions.

[8] = Human immunodeficiency virus 1, TZM-bl, 48 h, Table S1, WT virus, TZM-bl, fivefold serial dilutions, MOI 1, 48 h, read-out: EC50
[9] = Human immunodeficiency virus 1, TZM-bl, Table S1, WT virus, TZM-bl, read-out: EC50

Structure (SMILES)	IC50 [1] [nM]	inhibition of viral-expressed eGFP signal [2]	EC50 [3] [nM]	EC50 [4] [nM]	EC50 [5] [nM]	EC50 [6] [nM]	EC50 ([7]; Human immunodeficiency virus 1, TZM-bl, 48 h, TZM-bl cells infected with HIV-1NL4-3 at MOI 1, 48 h, F-Luc, mean ± SD) [nM]	EC50 [7, 8] [nM]	SI (CC50/EC50) ([7]; TZM-bl cells)	EC50 ([7]; TZM-bl cells infected with HIV-1NL4-3 at MOI 1, 48 h, F-Luc, mean ± SD, read-out: EC50) [nM]	EC50 ([7]; Human immunodeficiency virus 1, TZM-bl, 48 h, TZM-bl cells infected with HIV-1NL4-3 at MOI 1, 48 h, F-Luc, mean ± SD, read-out: EC50) [nM]	EC90 ([7]; Human immunodeficiency virus 1, TZM-bl cells, read-out: approximate EC90) [nM]	EC50 ([7]; Human immunodeficiency virus 1, TZM-bl, 48 h, TZM-bl cells infected with HIV-1NL4-3 at MOI 1, 48 h, read-out: EC50) [nM]	EC50 [7, 9] [nM]
Cc1[nH]c2ccc(-c3nnc(SCC(=O)N4CCCC4)o3)cc2c1C [Compound 13, 2-((5-(2,3-Dimethyl-1H-indol-5-yl)-1,3,4-oxadiazol-2-yl)thio)-1-(pyrrolidin-1-yl)ethan-1-one]	300 ± 30	remarkably inhibited	200	180 ± 10	230 ± 20	140 ± 10	180 ± 50	200 ± 20	196.33	240 ± 30				
Cc1[nH]c2ccc(-c3nnc(SCC(=O)N4CCCCC4)o3)cc2c1C [Compound 9, 2-((5-(2,3-Dimethyl-1H-indol-5-yl)-1,3,4-oxadiazol-2-yl)thio)-1-(piperidin-1-yl)ethan-1-one]	140	remarkably inhibited	70	60	80 ± 20	70		130 ± 20	371.76		170 ± 20	~1500		
CC(C)[C@]12O[C@H]1[C@@H]1O[C@]13[C@]1(O[C@H]1C[C@H]1C4=C(CC[C@@]13C)C(=O)OC4)[C@@H]2O [triptolide, reference compound]	0.82 ± 0.02	remarkably inhibited							52.63				0.38 ± 0.07	
C[C@@H]1CCO[C@H]2Cn3cc(C(=O)NCc4ccc(F)cc4F)c(=O)c(O)c3C(=O)N12 [DTG, dolutegravir, reference compound]		remarkably inhibited			10	10 ± 10								1
O=C1Nc2ccc(Cl)cc2[C@@](C#CC2CC2)(C(F)(F)F)O1 [EFV, efavirenz, reference compound]		remarkably inhibited	4360 ± 80	15500 ± 3390										< 1
